Where two headings read alike, the source gives them in different places.
What was measured:
[1] = molecular target: Acid phosphatase; experiment: Mouse macrophage acid phosphatase activity; assay type: cell-based; settings: 60 min incubation, read-out: Acid Phosphatase IC50
[2] = molecular target: Prostaglandin cyclooxygenase; experiment: Mouse macrophage prostaglandin cyclooxygenase activity; assay type: cell-based; settings: 60 min incubation, read-out: Prostaglandin Cyclooxygenase IC50
Source text: (§1) 3. Mouse macrophages J774A.1 BALB/c
Prostaglandin synthetase purified beef seminal vesicle ^3 H arachidonic acid (86.2 Ci/mmol), tlc separation.

[3] = molecular target: Acid phosphatase; experiment: Mouse hepatic lysosomal acid phosphatase activity; assay type: biochemical; settings: Table XV; mouse hepatic, 60 min incubation
Source text: (§2) 1. Cf1 male mouse hepatic 10% homogenates in 0.25M sucrose+0.001MEDTA,pH 7.2.
(§3) Lysosomal Enzymes - free and total [triton X-100].
(§4) 1. Acid phosphatase -beta glycerol-3-phosphate, pH 5.0, released IP 720 nm.
Acid phosphatase activity -

[4] = system: Sprague Dawley male rats; experiment: Anti-pleurisy screen, Evans blue + carrageenan; assay type: in vivo; settings: Table XIV; unit not given
[5] = system: Cf1 male mice; experiment: Writhing reflex, 0.6% acetic acid; assay type: in vivo; settings: Table XIV; unit inferred; unit assumed
Description: Writhing reflex- Cf1 -male mice- 0.6% acetic acid I.P. drugs administered @20 mg/kg/ I.P. 20 min. later - the # of stretches/10 min.
Hendershot, L.C., et al, J.

[6] = molecular target: Commercial Collagenase; experiment: Commercial collagenase (type not stated); assay type: biochemical; settings: Table XVI; 60 min incubation
Source text: 3. Collagenase I, Clostridium histolyticum, bone, skin, tendon, blood vessel, dentine, GI. substrate: rat collagen, N-[propionate-2-3-^3 H] propionylated measured as dpm released.
4. Collagenase II, Clostridium histolyticum, cartilage collagen.

[7] = molecular target: Elastase; experiment: Mouse macrophage elastase activity; assay type: cell-based; settings: 60 min incubation, read-out: Elastase IC50
[8] = molecular target: T1, Pg. cyclooxygenase (Sus scrofa, UniProt A0A287ANF9); experiment: Porcine seminal vesicles Pg. cyclooxygenase; assay type: biochemical; settings: Table XVI; 60 min incubation
T1 construct: Porcine Seminal; from tissue; the methods section prints beef seminal vesicle

[9] = molecular target: Aryl sulphatase; experiment: Mouse hepatic lysosomal aryl sulphatase activity; assay type: biochemical; settings: Table XV, 60 min incubation
Source text: as §2, §3
(§5) 3. Aryl sulphatase- p-nitrocatechol sulfate, pH
(§6) 5. 8 p-nitro-catechol product 510 nm.

[10] = system: Trypsin; experiment: Mouse hepatic trypsin activity; assay type: biochemical; settings: Table XVI; 60 min incubation; read-out: Mouse Hepatic Trypsin IC50
Source text: as §2
(§7) 1. Trypsin- N-benzoyl-L-arginine ethyl ester pH 8.0, hydrolytic product 253 nm.

[11] = molecular target: T2, Cathepsin D (Mus musculus, UniProt P18242); experiment: Mouse macrophage cathepsin D activity; assay type: cell-based; settings: Table XVII; mouse macrophage, 60 min incubation; read-out: Cathepsin D pH 5.0 IC50
T2 construct: azocasein assay pH 5.0
Source text: as §1
(§8) 2. Acid Cathepsin D -azocasein-pH 5.0, hydrolytic azo-peptide produce 366 nm.

[12] = molecular target: T2, Cathepsin D; experiment: Mouse hepatic lysosomal cathepsin D activity; assay type: biochemical
Source text: as §2, §3, §8
Cathepsin azo casein activity -

[13] = molecular target: Aryl sulphatase; experiment: Mouse macrophage aryl sulphatase activity; assay type: cell-based; settings: 60 min incubation, read-out: Aryl Sulphatase IC50
[14] = system: Cf1 male mice; experiment: Hot plate tail flick test; assay type: in vivo; settings: Table XIV; unit not given
[15] = system: Sprague Dawley male rats; experiment: Chronic adjuvant arthritis screen, Mycobacterium butyricum; assay type: in vivo; settings: Table XIV; unit not given
[16] = system: Trypsin; experiment: Mouse macrophage trypsin (BAEE) activity; assay type: cell-based; settings: 60 min incubation, read-out: Trypsin BAEE IC50
[17] = system: Cf1 male mice; experiment: Anti-inflammatory screen, Winter's test, 2% carrageenan hind foot; assay type: in vivo; settings: Table XIV; unit inferred; unit assumed
Description: Anti-inflammatory Screen- Cf1 - male mice-Winter's Test 2% carrageenan S.C. plantar surface of hind foot, drugs administered @8 or 10 mg/kg I.P. 2X
Winter, C.A., et al, Proc. Soc.

[18] = molecular target: T3, Cathepsin (Rattus norvegicus, UniProt P24268); experiment: Rat PMNs cathepsin activity; assay type: cell-based; settings: pH 5; 5 × 10^-6 M, N=6; read-out: Rat PMNs Cathep.
T3 construct: azocasein assay pH 5.0
Source text: 2. PMNs-polymorphonuclear neutrophils-rat peritoneal cavity 0.5% oyster glycogen.
as §8

[19] = in vivo; settings: mouse, Table 1, N=6
Description: Amine borane compounds (0 to 100 mg/kg) were administered to CF1 male mice as a single injection with six mice for each dosage. Mice were weighed daily and the number of deaths was recorded each day for a 14 day period. The LD50 value was determined by the procedure of S.C. Gad and C.S. Weil, "Statistics for Toxicologists" in Principles and Methods of Toxicology, A.W. Hayes, Ed., 2nd Edition, P 435-483 Raven Press, New York 1982.

[20] = system: Cathepsin; experiment: Human leukocyte cathepsin; assay type: cell-based; settings: Table XIX; read-out: Human Leukocyte IC50 (head gives no enzyme; beside Cathepsin D)
Source text: 5. Human peripheral leukocytes, RPMI-1788
as §8

[21] = molecular target: T4, 5'-Lipoxygenase (Homo sapiens, UniProt P09917); experiment: Human leukocyte 5'-lipoxygenase; assay type: cell-based
T4 construct: human leukocyte tissue culture cells; endogenous in cells; host or cells: Human peripheral leukocytes, RPMI-1788
T4 sequence (P09917 1-674): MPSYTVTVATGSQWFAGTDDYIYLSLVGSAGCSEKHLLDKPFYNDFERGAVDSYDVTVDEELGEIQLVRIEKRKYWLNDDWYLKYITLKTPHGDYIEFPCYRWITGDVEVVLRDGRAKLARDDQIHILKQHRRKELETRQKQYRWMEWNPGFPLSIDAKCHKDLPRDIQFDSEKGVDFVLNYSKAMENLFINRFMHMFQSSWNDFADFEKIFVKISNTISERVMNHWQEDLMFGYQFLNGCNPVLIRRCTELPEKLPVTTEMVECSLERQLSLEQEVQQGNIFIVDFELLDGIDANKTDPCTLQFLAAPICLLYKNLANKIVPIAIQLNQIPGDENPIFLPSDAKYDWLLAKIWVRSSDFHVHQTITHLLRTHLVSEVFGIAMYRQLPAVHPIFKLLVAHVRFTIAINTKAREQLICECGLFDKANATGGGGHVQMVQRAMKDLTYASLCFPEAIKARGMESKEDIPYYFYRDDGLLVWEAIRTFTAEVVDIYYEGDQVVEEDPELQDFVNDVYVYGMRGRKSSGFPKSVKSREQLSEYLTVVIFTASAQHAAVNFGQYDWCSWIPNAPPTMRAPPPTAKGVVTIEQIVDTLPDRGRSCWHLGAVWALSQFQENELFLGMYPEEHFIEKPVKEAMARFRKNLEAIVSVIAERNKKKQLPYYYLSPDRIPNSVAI

[22] = system: Acid phosphatase; experiment: Human osteoporosis fibroblasts acid phosphatase activity; assay type: cell-based; settings: Table X; human osteoporosis fibroblasts; read-out: Acid Phosphatase IC50
Source text: as §4

[23] = system: Elastase; experiment: Human osteoporosis fibroblasts elastase activity; assay type: cell-based; settings: Table XI; human osteoporosis fibroblasts, 60 min incubation; read-out: Elastase IC50
Source text: 2. Elastase- N-succinyl-L-alanyl-L-alanine-p-nitroanilide, pH 8.0, p-nitro anilide 410 nm.

[24] = system: Sprague Dawley Rats; experiment: Anti-inflammatory activity in Sprague Dawley rats; assay type: in vivo; settings: Table IV; 8 mg/kg I.P.
[25] = system: Prostaglandin cyclooxygenase; experiment: Human osteoporosis fibroblasts prostaglandin cyclooxygenase activity; assay type: cell-based; settings: Table XI, 60 min incubation, read-out: Prostaglandin Cyclooxygense IC50
[26] = system: Cf1 male mice; experiment: Writhing reflex, 0.6% acetic acid; assay type: in vivo; settings: Mus musculus, ip; Table IV
[27] = system: Trypsin; experiment: Human osteoporosis fibroblasts trypsin (BAEE) activity; assay type: cell-based; settings: Table XI; human osteoporosis fibroblasts, 60 min incubation; read-out: Trypsin BAEE IC50
Source text: as §7

[28] = system: Aryl sulphatase; experiment: Human osteoporosis fibroblasts aryl sulphatase activity; assay type: cell-based; settings: Table X; human osteoporosis fibroblasts; read-out: Aryl Sulphatase IC50
Source text: as §5, §6

[29] = molecular target: T5, Cathepsin D (Homo sapiens, UniProt P07339); experiment: Human osteoporosis fibroblasts cathepsin D (azo-casein) activity; assay type: cell-based; settings: Table X; human osteoporosis fibroblasts, DMEM +10% FCS + P/S; read-out: Cathepsin D IC50
T5 construct: azocasein assay pH 5.0
Source text: Osteoporosis Human Fibroblast-CRL-1140, Be SA1

[30] = Table XV, mouse hepatic, 60 min incubation, read-out: Cathepsin D IC50
[31] = Table VII, mouse macrophage cultured cells

T2 sequence (P18242 65-410): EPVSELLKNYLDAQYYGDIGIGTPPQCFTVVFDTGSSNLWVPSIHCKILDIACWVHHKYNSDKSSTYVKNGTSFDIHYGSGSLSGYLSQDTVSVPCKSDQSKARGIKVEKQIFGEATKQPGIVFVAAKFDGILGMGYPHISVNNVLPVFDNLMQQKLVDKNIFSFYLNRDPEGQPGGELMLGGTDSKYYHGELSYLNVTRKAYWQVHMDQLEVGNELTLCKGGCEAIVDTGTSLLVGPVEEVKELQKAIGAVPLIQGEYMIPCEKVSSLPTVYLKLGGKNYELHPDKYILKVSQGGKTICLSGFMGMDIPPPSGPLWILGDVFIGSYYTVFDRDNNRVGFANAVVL
T1 sequence (A0A287ANF9 25-600): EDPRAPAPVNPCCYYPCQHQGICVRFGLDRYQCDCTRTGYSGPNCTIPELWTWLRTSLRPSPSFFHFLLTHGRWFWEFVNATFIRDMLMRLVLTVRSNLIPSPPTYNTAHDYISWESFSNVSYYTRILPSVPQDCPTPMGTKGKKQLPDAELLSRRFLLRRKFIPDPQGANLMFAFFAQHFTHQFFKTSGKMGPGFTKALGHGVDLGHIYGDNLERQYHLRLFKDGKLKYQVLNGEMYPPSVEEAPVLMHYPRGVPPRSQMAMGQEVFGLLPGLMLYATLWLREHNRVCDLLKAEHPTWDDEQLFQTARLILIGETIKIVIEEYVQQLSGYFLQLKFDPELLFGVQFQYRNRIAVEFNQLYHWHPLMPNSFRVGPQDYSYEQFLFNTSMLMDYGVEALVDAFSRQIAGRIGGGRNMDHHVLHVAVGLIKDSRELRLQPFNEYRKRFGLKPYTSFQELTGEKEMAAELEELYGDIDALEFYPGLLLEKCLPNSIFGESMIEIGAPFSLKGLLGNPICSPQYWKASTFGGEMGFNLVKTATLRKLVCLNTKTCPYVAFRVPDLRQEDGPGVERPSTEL
T3 sequence (P24268 65-407): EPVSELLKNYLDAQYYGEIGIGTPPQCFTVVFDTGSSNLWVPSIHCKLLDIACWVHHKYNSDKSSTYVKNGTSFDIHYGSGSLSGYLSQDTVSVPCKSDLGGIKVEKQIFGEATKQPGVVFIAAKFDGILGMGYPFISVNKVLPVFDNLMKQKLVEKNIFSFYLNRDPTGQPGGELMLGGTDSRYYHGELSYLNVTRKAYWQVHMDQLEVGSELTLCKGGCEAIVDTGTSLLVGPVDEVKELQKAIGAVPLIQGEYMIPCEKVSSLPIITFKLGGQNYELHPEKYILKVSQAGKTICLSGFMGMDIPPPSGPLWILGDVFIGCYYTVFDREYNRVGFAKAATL
T5 sequence (P07339 65-412): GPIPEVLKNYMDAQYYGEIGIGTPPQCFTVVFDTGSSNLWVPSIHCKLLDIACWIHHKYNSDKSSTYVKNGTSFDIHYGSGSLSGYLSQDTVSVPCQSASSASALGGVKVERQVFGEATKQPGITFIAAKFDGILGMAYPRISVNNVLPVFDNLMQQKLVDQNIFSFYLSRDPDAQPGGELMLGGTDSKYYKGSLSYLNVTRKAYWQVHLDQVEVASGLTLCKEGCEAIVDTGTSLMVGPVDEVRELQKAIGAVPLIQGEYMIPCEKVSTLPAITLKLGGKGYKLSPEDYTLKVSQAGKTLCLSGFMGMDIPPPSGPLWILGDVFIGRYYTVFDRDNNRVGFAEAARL

SMILES | IC50 ([1]; Table XVII, mouse macrophage) [µM] | IC50 ([2]; Table XVIII, mouse macrophage) [µM] | IC50 [3] [µM] | Anti-Pleurisy Rats [4] | Writhing Reflex Mice [5] [%] | IC50 [6] [µM] | IC50 ([7]; Table XVIII, mouse macrophage) [µM] | IC50 [8] [µM] | IC50 [9] [µM] | IC50 [10] [µM] | IC50 [11] [µM] | IC50 [12, 30] [µM] | IC50 ([13]; Table XVII, mouse macrophage) [µM] | Tail Flick Mice [14] | Anti-Arthritis Rats [15] | IC50 ([16]; Table XVIII, mouse macrophage) [µM] | Anti-Inflammation Cf1 Mice [17] [%] | further results
CC#N.CO.C[N+](C)(C)[BH2-]C(=O)[O-].C[N+](C)(C)[BH2-]C(=O)[O-].C[N+](C)(C)[BH2-]C(=O)[O-].C[N+](C)(C)[BH2-]C(=O)[O-].C[N+](C)(C)[BH2-]C(=O)[O-].C[N+](C)(C)[BH2-]C(=O)[O-].O.O=[N+]([O-])[O-].[Cr+3].[Cr+3].[Cr+3].[O-2] [Compound 26] | 2.48 | 1.62 | 6.99 | 40.0 | 85.4 | 567 | 5.09 | 2.14 | 7.73 | 9.96 | 2.49 | 5.47 | 1.2 | 184 | 78.0 | 2.1 | 58.5 | 
CC(C)=O.C[N+](C)(C)[BH2-]C(=O)[O-].O=[N+]([O-])[O-].[Ca+2] [Compound 28] | 3.08 | 1.92 | 7.66 | 50.1 | 66.4 | 495 | 5.93 | 2.57 | 3.05 | 9.99 | 2.38 | 4.58 | 2.38 | 169 |  | 2.38 | 65 | 
[BH3-][NH+]1CCOCC1 [Compound 1] |  |  |  |  |  |  |  |  |  |  |  |  |  |  |  |  |  | activity at 5 µM ([12]; pH 5, read-out: Mouse Liver Cathep.): 107%; activity at 5 µM [18]: 93%; LD50 at 336 h [19]: 475 mg/kg
C[N+](C)(C)[BH2-]C(=O)[O-].C[N+](C)(C)[BH2-]C(=O)[O-].NCCN.NCCN.[Cl-].[Co+3] [Compound 27] | 2.92 | 2.09 | 4.25 | 96.3 | 66.2 | 522 | 9.77 | 4.01 | 5.89 | 9.88 | 3.83 | 7.8 | 1.95 | 150 | 70.0 | 1.38 | 49.6 | 
CCOC(=O)[BH2-][N+](C)(C)C [Compound 6] |  |  |  |  |  |  |  |  |  |  |  |  |  |  |  |  |  | activity at 5 µM [18]: 16%; LD50 at 336 h [19]: 140 mg/kg
N#C[BH2-][n+]1c(N)ccn([C@H]2C[C@H](O)[C@@H](CO)O2)c1=O [Compound 39, 2'-Deoxycytidine-N3-cyanoborane] |  |  |  |  |  |  |  |  |  |  |  |  |  |  |  |  |  | IC50 [20]: 8.72 µM; IC50 ([21]; Table XIX, read-out: Leukocyte 5' lipoxygenase IC50): 12.8 µM; IC50 ([12]; Table XIX, read-out: Mouse Hepatic Cathepsin D IC50): 26 µM
BC(=O)O [Compound 13] | 0.82 | 15.6 | 4 |  |  |  | 3.07 |  | 4.34 |  | 4.57 | 6.19 | 5.43 |  | 55.2 | 2.25 | 41.7 | IC50 [1, 31]: 0.82 µM; IC50 [22]: 6.5 µM; IC50 ([2]; Table VIII, mouse macrophages): 6.79 µM; IC50 ([7]; Table VIII, mouse macrophages): 3.07 µM; IC50 [23]: 3.01 µM; Anti-Inflammatory Activity Sprague Dawley Rats [24]: 55 % Control; IC50 [25]: 5.51 µM; response vs control in vivo at 20 mg/kg [26]: 17.4%; IC50 [27]: 7.51 µM; IC50 [13, 31]: 5.43 µM; IC50 ([16]; Table VIII, mouse macrophages): 2.25 µM; IC50 [28]: 8.19 µM; IC50 [29]: 1.19 µM
CC(C)[Si](OC[C@H]1O[C@@H](n2ccc(N)nc2=O)C[C@@H]1O[Si](C(C)C)(C(C)C)C(C)C)(C(C)C)C(C)C [Compound 38] |  |  |  |  |  |  |  |  |  |  |  |  |  |  |  |  |  | IC50 [20]: 13.9 µM; IC50 [21]: 7.72 µM; IC50 ([12]; read-out: Mouse Hepatic Cathepsin D IC50, Table XIX): 59.7 µM

Reference: patent publication US5312816A, “Method of combatting osteoporosis in mammalian subjects, utilizing organic boron compounds” (priority 1993, dated 1994)
